Patent US11213517B2, “Pharmaceutical combination comprising a T-type calcium channel blocker” (IDORSIA PHARMACEUTICALS LTD, priority 2016, dated 2022)
Where “and” joins values, the source holds several entries; their conditions need not be identical. Identical values can stand only once. Like-named read-outs stand apart in the source and are kept apart here.

What was measured:
[1] = Plasma and brain concentrations of drugs at the end of the audiogenic seizure experiment (LC-MS); assay type: in vivo, mouse; settings: for plasma and brain concentrations after administration of the compounds alone or in combination: juvenile DBA/2J mice; for concentration at 3 h: DBA/2J, mouse
Method: Briefly, blood was sampled from the vena cava caudalis with a syringe pre-filled with EDTA (ethylenediamine tetraacetic acid) as anticoagulant and centrifuged to yield plasma (for 10 minutes, at 4° C. and 5000 rpm (rounds per minute)). Brain was sampled and homogenized into one volume of cold phosphate buffer (pH 7.4). Following extraction with methanol, concentrations of the compound in plasma and brain were determined using liquid chromatography coupled to mass spectrometry.
(§1) Different combination efficacy experiments are performed. […] Each experiment consists of four treatment groups: • 1. Vehicle (10% Polyethylene glycol400 (PEG400)/90% methylcellulose (0.5% in water; MC0.5%)), 3 h before exposure to the auditory stimulus+vehicle, 1 h before exposure to the auditory stimulus; • 2. COMPOUND 1 (in 10% PEG400/90% MC0.5%), 3 h before exposure to the auditory stimulus+vehicle, 1 h before exposure to the auditory stimulus; • 3. Vehicle, 3 h before exposure to the auditory stimulus+AED (in 10% PEG400/90% MC0.5%), 1 h before exposure to the auditory stimulus; and • 4. COMPOUND 1 (in 10% PEG400/90% MC0.5%), 3 h before exposure to the auditory stimulus+AED (in 10% PEG400/90% MC0.5%), 1 h before exposure to the auditory stimulus.

[2] = system: audiogenic seizure-sensitive juvenile DBA/2J mice; experiment: Audiogenic seizure-sensitive juvenile DBA/2J mouse model of generalized tonic-clonic seizures; assay type: in vivo; set-up: key: 0 none, 1 wild running, 2 clonus, 3 hind-limb tonic extension; settings: COMPOUND 1 10 mg/kg 3 h + vehicle 1 h before stimulus, oral gavage; mean ± SEM; 10 mg/kg
Source text: Audiogenic Seizure-Sensitive Juvenile DBA/2J Mouse Model of Generalized Tonic-Clonic Seizures
The inbred DBA/2J mouse strain carries an increased general susceptibility for acute generalized convulsive seizures induced by either pharmacological, electrical or, as juvenile, auditory stimuli. At the age of 17 to 28 days (juvenile), they show tonic-clonic convulsions when exposed to a loud tone.
Male juvenile DBA/2J mice (22-24 days old, body weight between 6.6 and 14.5 grams) were used. Each mouse was placed individually in the exposure chamber, an hemispheric acrylic glass dome (diameter: 50 cm) within a sound-attenuated box. After 60 seconds of habituation, an auditory stimulus of mixed frequency tone (15-20 kHz at 110 dB) was played from a speaker placed on the top center of the dome.
The sound-attenuated box was equipped with lights and a camera system in order to observe and record the behavioral seizure response classified as following: • stage 0, no response • stage 1, wild running • stage 2, clonus • stage 3, tonic extension of the hind limbs.
as §1

[3] = analyte COMPOUND 1, COMPOUND 1 10 mg/kg 3 h + vehicle 1 h before stimulus, oral gavage, mean ± SEM, 10 mg/kg

SMILES: N#Cc1ccc(Cn2ccc(NC(=O)Cc3ccc(C4(C(F)(F)F)CC4)cc3)n2)nc1 [COMPOUND 1, N-[1-(5-Cyano-pyridin-2-ylmethyl)-1H-pyrazol-3-yl]-2-[4-(1-trifluoromethyl-cyclopropyl)-phenyl]-acetamide]
- plasma and brain concentrations after administration of the compounds alone or in combination ([1]; COMPOUND 1 and LEV): similar
- plasma and brain concentrations after administration of the compounds alone or in combination ([1]; COMPOUND 1 and lamotrigine): similar
- plasma and brain concentrations after administration of the compounds alone or in combination ([1]; COMPOUND 1 and valproic acid): similar
- concentration at 3 h ([1]; brain, oral, analyte COMPOUND 1, COMPOUND 1 10 mg/kg 3 h + LEV 1 mg/kg 1 h before stimulus, oral gavage, mean ± SEM, read-out: Brain concentration total): 1930 ± 100 ng/g
- concentration at 3 h ([1]; brain, oral, analyte COMPOUND 1, COMPOUND 1 10 mg/kg 3 h + LEV 3 mg/kg 1 h before stimulus, oral gavage, mean ± SEM, read-out: Brain concentration total): 2520 ± 190 ng/g
- concentration at 3 h ([1]; brain, oral, analyte COMPOUND 1, COMPOUND 1 10 mg/kg 3 h + LEV 10 mg/kg 1 h before stimulus, oral gavage, mean ± SEM, read-out: Brain concentration total): 2030 ± 137 ng/g
- concentration at 3 h ([1]; brain, oral, analyte COMPOUND 1, COMPOUND 1 10 mg/kg 3 h + LEV 50 mg/kg 1 h before stimulus, oral gavage, mean ± SEM, read-out: Brain concentration total): 1810 ± 93 ng/g
- concentration at 3 h ([1]; brain, oral, analyte COMPOUND 1, COMPOUND 1 10 mg/kg 3 h + LTG 10 mg/kg 1 h before stimulus, oral gavage, mean ± SEM, read-out: Brain concentration total): 1420 ± 165 ng/g
- concentration at 3 h ([1]; brain, oral, analyte COMPOUND 1, COMPOUND 1 10 mg/kg 3 h + VPA 100 mg/kg 1 h before stimulus, oral gavage, mean ± SEM, read-out: Brain concentration total): 2040 ± 178 ng/g
- concentration at 3 h ([1]; brain, oral, analyte COMPOUND 1, COMPOUND 1 10 mg/kg 3 h + VPA 200 mg/kg 1 h before stimulus, oral gavage, mean ± SEM, read-out: Brain concentration total): 1640 ± 52 ng/g
- concentration at 3 h ([1]; brain, oral, analyte COMPOUND 1, COMPOUND 1 30 mg/kg 3 h + LEV 3 mg/kg 1 h before stimulus, oral gavage, mean ± SEM, read-out: Brain concentration total): 5960 ± 330 ng/g
- concentration at 3 h ([1]; brain, oral, analyte COMPOUND 1, COMPOUND 1 30 mg/kg 3 h + LEV 10 mg/kg 1 h before stimulus, oral gavage, mean ± SEM, read-out: Brain concentration total): 5470 ± 533 ng/g
- concentration at 3 h ([1]; brain, oral, analyte COMPOUND 1, COMPOUND 1 30 mg/kg 3 h + LEV 50 mg/kg 1 h before stimulus, oral gavage, mean ± SEM, read-out: Brain concentration total): 4690 ± 399 ng/g
- concentration at 3 h ([1]; brain, oral, analyte COMPOUND 1, COMPOUND 1 30 mg/kg 3 h + LTG 3 mg/kg 1 h before stimulus, oral gavage, mean ± SEM, read-out: Brain concentration total): 5030 ± 238 ng/g
- concentration at 3 h ([1]; brain, oral, analyte COMPOUND 1, COMPOUND 1 30 mg/kg 3 h + LTG 10 mg/kg 1 h before stimulus, oral gavage, mean ± SEM, read-out: Brain concentration total): 4260 ± 350 ng/g
- concentration at 3 h ([1]; brain, oral, analyte COMPOUND 1, COMPOUND 1 30 mg/kg 3 h + LTG 30 mg/kg 1 h before stimulus, oral gavage, mean ± SEM, read-out: Brain concentration total): 3290 ± 170 ng/g
- concentration at 3 h ([1]; brain, oral, analyte COMPOUND 1, COMPOUND 1 30 mg/kg 3 h + VPA 30 mg/kg 1 h before stimulus, oral gavage, mean ± SEM, read-out: Brain concentration total): 5100 ± 375 ng/g
- concentration at 3 h ([1]; brain, oral, analyte COMPOUND 1, COMPOUND 1 30 mg/kg 3 h + VPA 100 mg/kg 1 h before stimulus, oral gavage, mean ± SEM, read-out: Brain concentration total): 5980 ± 336 ng/g
- concentration at 3 h ([1]; brain, oral, analyte COMPOUND 1, COMPOUND 1 30 mg/kg 3 h + VPA 200 mg/kg 1 h before stimulus, oral gavage, mean ± SEM, read-out: Brain concentration total): 4990 ± 245 ng/g
- concentration at 3 h ([1]; brain, po, 10 mg/kg, analyte COMPOUND 1, COMPOUND 1 10 mg/kg 3 h + vehicle 1 h before stimulus, oral gavage, mean ± SEM, read-out: Brain concentration total): 1450 ± 104 ng/g
- concentration at 3 h ([1]; brain, po, 30 mg/kg, analyte COMPOUND 1, COMPOUND 1 30 mg/kg 3 h + vehicle 1 h before stimulus, oral gavage, mean ± SEM, read-out: Brain concentration total): 5230 ± 487 ng/g
- concentration at 3 h ([1]; plasma, oral, analyte COMPOUND 1, COMPOUND 1 10 mg/kg 3 h + LEV 1 mg/kg 1 h before stimulus, oral gavage, mean ± SEM, read-out: Plasma concentration total): 1500 ± 112 ng/mL
- concentration at 3 h ([1]; plasma, oral, analyte COMPOUND 1, COMPOUND 1 10 mg/kg 3 h + LEV 3 mg/kg 1 h before stimulus, oral gavage, mean ± SEM, read-out: Plasma concentration total): 1600 ± 111 ng/mL
- concentration at 3 h ([1]; plasma, oral, analyte COMPOUND 1, COMPOUND 1 10 mg/kg 3 h + LEV 10 mg/kg 1 h before stimulus, oral gavage, mean ± SEM, read-out: Plasma concentration total): 1590 ± 142 ng/mL
- concentration at 3 h ([1]; plasma, oral, analyte COMPOUND 1, COMPOUND 1 10 mg/kg 3 h + LEV 50 mg/kg 1 h before stimulus, oral gavage, mean ± SEM, read-out: Plasma concentration total): 1720 ± 124 ng/mL
- concentration at 3 h ([1]; plasma, oral, analyte COMPOUND 1, COMPOUND 1 10 mg/kg 3 h + LTG 10 mg/kg 1 h before stimulus, oral gavage, mean ± SEM, read-out: Plasma concentration total): 1290 ± 140 ng/mL
- concentration at 3 h ([1]; plasma, oral, analyte COMPOUND 1, COMPOUND 1 10 mg/kg 3 h + VPA 100 mg/kg 1 h before stimulus, oral gavage, mean ± SEM, read-out: Plasma concentration total): 710 ± 80 ng/mL
- concentration at 3 h ([1]; plasma, oral, analyte COMPOUND 1, COMPOUND 1 10 mg/kg 3 h + VPA 200 mg/kg 1 h before stimulus, oral gavage, mean ± SEM, read-out: Plasma concentration total): 1160 ± 73 ng/mL
- concentration at 3 h ([1]; plasma, oral, analyte COMPOUND 1, COMPOUND 1 30 mg/kg 3 h + LEV 3 mg/kg 1 h before stimulus, oral gavage, mean ± SEM, read-out: Plasma concentration total): 4530 ± 224 ng/mL
- concentration at 3 h ([1]; plasma, oral, analyte COMPOUND 1, COMPOUND 1 30 mg/kg 3 h + LEV 10 mg/kg 1 h before stimulus, oral gavage, mean ± SEM, read-out: Plasma concentration total): 4120 ± 315 ng/mL
- concentration at 3 h ([1]; plasma, oral, analyte COMPOUND 1, COMPOUND 1 30 mg/kg 3 h + LEV 50 mg/kg 1 h before stimulus, oral gavage, mean ± SEM, read-out: Plasma concentration total): 3720 ± 351 ng/mL
- concentration at 3 h ([1]; plasma, oral, analyte COMPOUND 1, COMPOUND 1 30 mg/kg 3 h + LTG 3 mg/kg 1 h before stimulus, oral gavage, mean ± SEM, read-out: Plasma concentration total): 4550 ± 293 ng/mL
- concentration at 3 h ([1]; plasma, oral, analyte COMPOUND 1, COMPOUND 1 30 mg/kg 3 h + LTG 10 mg/kg 1 h before stimulus, oral gavage, mean ± SEM, read-out: Plasma concentration total): 3960 ± 372 ng/mL
- concentration at 3 h ([1]; plasma, oral, analyte COMPOUND 1, COMPOUND 1 30 mg/kg 3 h + LTG 30 mg/kg 1 h before stimulus, oral gavage, mean ± SEM, read-out: Plasma concentration total): 2920 ± 150 ng/mL
- concentration at 3 h ([1]; plasma, oral, analyte COMPOUND 1, COMPOUND 1 30 mg/kg 3 h + VPA 30 mg/kg 1 h before stimulus, oral gavage, mean ± SEM, read-out: Plasma concentration total): 3150 ± 296 ng/mL
- concentration at 3 h ([1]; plasma, oral, analyte COMPOUND 1, COMPOUND 1 30 mg/kg 3 h + VPA 100 mg/kg 1 h before stimulus, oral gavage, mean ± SEM, read-out: Plasma concentration total): 2820 ± 256 ng/mL
- concentration at 3 h ([1]; plasma, oral, analyte COMPOUND 1, COMPOUND 1 30 mg/kg 3 h + VPA 200 mg/kg 1 h before stimulus, oral gavage, mean ± SEM, read-out: Plasma concentration total): 2110 ± 118 ng/mL
- concentration at 3 h ([1]; plasma, po, 10 mg/kg, analyte COMPOUND 1, COMPOUND 1 10 mg/kg 3 h + vehicle 1 h before stimulus, oral gavage, mean ± SEM, read-out: Plasma concentration total): 2120 ± 175 ng/mL
- concentration at 3 h ([1]; plasma, po, 30 mg/kg, analyte COMPOUND 1, COMPOUND 1 30 mg/kg 3 h + vehicle 1 h before stimulus, oral gavage, mean ± SEM, read-out: Plasma concentration total): 3090 ± 297 ng/mL
- Brain concentration total [1, 3]: 1895 ± 75 ng/g and 2379 ± 164 ng/g and 1965 ± 138 ng/g and 1743 ± 158 ng/g and 1435 ± 55 ng/g and 1197 ± 80 ng/g
- Plasma concentration total [1, 3]: 1128 ± 98 ng/mL and 1858 ± 116 ng/mL and 1894 ± 113 ng/mL and 1785 ± 186 ng/mL and 1318 ± 77 ng/mL and 1522 ± 109 ng/mL
- Seizure stage (maximal seizure stage observed during exposure to auditory stimulus) [2]: 3 and 2.7 ± 0.3 and 3.0 ± 0.0 and 2.9 ± 0.1 and 2.7 ± 0.2 and 2.8 ± 0.2
